# Reference: US20250262210A1, “LZTR1 MUTANT TUMORS AND METHODS THEREOF” (The Trustees of Columbia University in the City of New York, priority 2022, published 2025)
# Peptide text beside a SMILES is read from it. * marks the point of attachment. Cbz = O=C(OCc1ccccc1)*
# Tests used:
# [1] = test system: AXL; assay: Ubiquitylation assay of AXL in Hela cells; format: cell-based; conditions: chloroquine 100 μM, MG132 20 μM, FIG. 3F
# Description: (§1) 293T and Hela cells were transfected with plasmid expressing EGFR-GFP, HA-Ub and LZTR1-FLAG as indicated in figures and treated with MLN4924 (1 μM), chloroquine (CQ, 100 μM), MG132 (20 μM), or EGF (20 ng/ml or 100 ng/ml) and ubiquitylation assay was performed under denaturing condition. Cells were lysed in 1% SDS and boiled at 100° C. for 10 min. Lysates were diluted with tris buffered saline containing 1% N P40 and centrifuged 14000 r.p.m. for 15 min at 4° C. Immunoprecipitation was performed using 500 μg to 1 mg of cellular lysates using HA affinity gel (Sigma, E6779), AXL or EGFR antibodies at 4° C. overnight followed by protein G/A beads for 90 min at 4° C. […] Protein samples were separated by SDS-PAGE and transferred to PV DF membrane and analyzed by western blot.
# [2] = test system: AXL; assay: LZTR1-mediated destabilization of AXL in transfected HEK 293T cells (western blot); format: cell-based; conditions: HEK 293T cells with AXL-HA and LZTR1-FLAG; FIG. 3B, 3D
# Description: (§2) Cells were lysed in RIPA buffer (50 mM Tris-HCl, pH 7.5, 150 mM NaCl, 1 mM EDTA, 1% NP40, 0.5% sodium deoxycholate, 0.1% sodium dodecyl sulphate, 1.5 mM Na3VO4, 50 mM sodium fluoride, 10 mM sodium pyrophosphate, 10 mM β-glycerolphosphate and EDTA-free protease inhibitor cocktail (Roche)) or NP40 lysis buffer (50 mM Tris-HCl, pH 7.5, 150 mM NaCl, 1 mM EDTA, 1% NP40, 1.5 mM Na3VO4, 50 mM sodium fluoride, 10 mM sodium pyrophosphate, 10 mM β-glycerolphosphate and EDTA-free protease inhibitor cocktail (Roche)). Lysates were centrifuged 14,000 r.p.m. for 15 min at 4° C. and supernatant were collected. […] Beads were washed with lysis buffer four times and eluted in 2×SDS sample buffer. Immunoprecipitates or lysates were separated by SDS-PAGE and transferred to polyvinylidene difluoride or nitrocellulose membranes. Membranes were blocked in TBS-T (0.1% Tween20) with 5% non-fat milk or BSA and probed with primary antibodies.
# [3] = test system: EGFR; assay: LZTR1-mediated destabilization of EGFR in transfected HEK 293T cells (western blot); format: cell-based; conditions: HEK 293T cells with EGFR-GFP and LZTR1-FLAG; FIG. 3A, 3C
# Description: as §2
# [4] = test system: RIT1; assay: LZTR1-mediated reduction of RIT1 in transfected HEK 293T cells (western blot); format: cell-based; conditions: HEK 293T cells with FLAG-RIT1 and LZTR1-FLAG; FIG. 10A, 10C
# Description: as §2
# [5] = test system: EGFR; assay: Ubiquitylation assay of EGFR in HEK 293T cells; format: cell-based; conditions: MLN4924 1 μM, FIG. 3E
# Description: as §1
# [6] = test system: schwannoma-like cells from Lztr1fl/fl;Cdkn2Afl/fl;GFAP-Cre+ mice (E0954); assay: Clonogenic assay of schwannoma-like cells; format: cell-based, mouse; conditions: single dose; 72 hr treatment; FIG. 15C-F
# Description: 500 cells were seeded in triplicate wells of 6-well plates. […] Cells were stained with crystal violet and colonies were counted.
# [7] = test system: subcutaneous tumors of schwannoma-like cells from Lztr1fl/fl;Cdkn2Afl/fl;GFAP-Cre+ mice (E0954); format: in vivo; conditions: single RTK inhibitor; summary in the discussion
# Description: Mice were weighted daily. Tumor diameters were measured every 2 days with caliper and tumor volumes estimated using the formula: width2×length/2=V (mm3). Mice were euthanized when the tumor size reached 2,000 mm3 or if the skin was ulcerated, according to IACUC recommendation. All experiments were performed according to the guidelines of the Institutional Animal Care and Use Committee at Columbia University.
compound,measurement,setting,value
CC(C)C[C@@H](C=O)NC(=O)[C@H](CC(C)C)NC(=O)[C@H](CC(C)C)NC(=O)OCc1ccccc1 [MG132] (Cbz-Leu-Leu-Leu-aldehyde),LZTR1-increased polyubiquitylated species of AXL,[1],ineffective
NS(=O)(=O)OC[C@@H]1C[C@@H](n2ccc3c(N[C@H]4CCc5ccccc54)ncnc32)C[C@@H]1O [MLN4924],LZTR1-mediated destabilization of AXL,[2],rescued
same,LZTR1-mediated destabilization of EGFR,[3],rescued
same,RIT1 reduction by LZTR1,[4],rescued
same,LZTR1-increased formation of high molecular weight polyubiquitylated EGFR,[5],abolished
CN(C)C/C=C/C(=O)Nc1cc2c(Nc3ccc(F)c(Cl)c3)ncnc2cc1O[C@H]1CCOC1 [afatinib],clonogenicity,[6],ineffective
CO/C1=C\C(C)=C\[C@@H](C)[C@@H](O)[C@@H](C)C/C(C)=C/C=C/[C@H](OC)[C@@H]([C@@H](C)[C@@H](O)[C@H](C)[C@@]2(O)C[C@@H](O)[C@H](C)[C@@H](C(C)C)O2)OC1=O [bafilomycin A1],LZTR1-mediated destabilization of AXL,[2],relieved
same,LZTR1-mediated destabilization of EGFR,[3],relieved
Nc1nc(Nc2ccc3c(c2)CC[C@@H](N2CCCC2)CC3)nn1-c1cc2c(nn1)-c1ccccc1CCC2 [bemcentinib],clonogenicity,[6],ineffective
same,therapeutic effect of single treatment,[7],minimal
CC(C)C[C@H](NC(=O)[C@H](Cc1ccccc1)NC(=O)c1cnccn1)B(O)O [bortezomib],RIT1 reduction by LZTR1,[4],rescued
CCN(CC)CCCC(C)Nc1ccnc2cc(Cl)ccc12 (stereo not shown) [chloroquine],LZTR1-increased polyubiquitylated species of AXL,[1],accumulated at much higher levels
C=CC(=O)Nc1cc(Nc2nccc(-c3cn(C)c4ccccc34)n2)c(OC)cc1N(C)CCN(C)C [osimertinib],clonogenicity,[6],ineffective
